From ChEMBL document CHEMBL2146378, “Curcumin is an inhibitor of calcium/calmodulin dependent protein kinase II” (Bioorg Med Chem, 2012)

What was measured:
[1] = Inhibition of Albino Wistar rat CaMK2 autophosphorylation at Thr286 in postsynaptic density fraction using [gamma32P]ATP incubated for 30 secs prior to ATP addition measured after 30 secs
[2] = Inhibition of Albino Wistar rat CaMK2 in postsynaptic density fraction using GST-NR2A as substrate incubated for 1 min prior to substrate addition measured after 1 min
[3] = Inhibition of Albino Wistar rat CaMK2 autophosphorylation at Thr286 in brain cytosolic fraction using [gamma32P]ATP incubated for 30 secs prior to ATP addition measured after 30 secs; assay type: tissue-based
[4] = molecular target: T1, Calcium/calmodulin-dependent protein kinase type II subunit alpha (Homo sapiens, UniProt Q9UQM7); test: Inhibition of autophosphorylated alphaCaMK2 using GST-NR2A as substrate incubated for 1 min prior to substrate addition measured after 1 min
[5] = molecular target: T1, Calcium/calmodulin-dependent protein kinase type II subunit alpha; test: Inhibition of autophosphorylated alphaCaMK2 using GST-NR2A as substrate incubated for 1 min prior to substrate addition measured after 1 min in presence of EGTA
[6] = Inhibition of Albino Wistar rat CaMK2 in brain cytosolic fraction using GST-NR2A as substrate incubated for 1 min prior to substrate addition measured after 1 min in presence of EGTA; assay type: tissue-based
[7] = molecular target: T1, Calcium/calmodulin-dependent protein kinase type II subunit alpha; test: Inhibition of alphaCaMK2 autophosphorylation at Thr286 using [gamma32P]ATP incubated for 30 secs prior to ATP addition measured after 30 secs
[8] = molecular target: T1, Calcium/calmodulin-dependent protein kinase type II subunit alpha; test: Inhibition of alphaCaMK2 using GST-NR2A as substrate incubated for 1 min prior to substrate addition measured after 1 min
[9] = Inhibition of Albino Wistar rat CaMK2 in postsynaptic density fraction using GST-NR2A as substrate incubated for 1 min prior to substrate addition measured after 1 min in presence of EGTA
[10] = Inhibition of Albino Wistar rat CaMK2 in brain cytosolic fraction using GST-NR2A as substrate incubated for 1 min prior to substrate addition measured after 1 min; assay type: tissue-based
[11] = molecular target: Calcium/calmodulin-dependent protein kinase type II subunit alpha (Homo sapiens, UniProt Q9UQM7, T286D); test: Inhibition of alphaCaMK2 T286D mutant using GST-NR2A as substrate incubated for 1 min prior to substrate addition measured after 1 min in presence of EGTA
Calcium/calmodulin-dependent protein kinase type II subunit alpha (Homo sapiens, UniProt Q9UQM7, T286D), sequence (Q9UQM7 whole entry T286D): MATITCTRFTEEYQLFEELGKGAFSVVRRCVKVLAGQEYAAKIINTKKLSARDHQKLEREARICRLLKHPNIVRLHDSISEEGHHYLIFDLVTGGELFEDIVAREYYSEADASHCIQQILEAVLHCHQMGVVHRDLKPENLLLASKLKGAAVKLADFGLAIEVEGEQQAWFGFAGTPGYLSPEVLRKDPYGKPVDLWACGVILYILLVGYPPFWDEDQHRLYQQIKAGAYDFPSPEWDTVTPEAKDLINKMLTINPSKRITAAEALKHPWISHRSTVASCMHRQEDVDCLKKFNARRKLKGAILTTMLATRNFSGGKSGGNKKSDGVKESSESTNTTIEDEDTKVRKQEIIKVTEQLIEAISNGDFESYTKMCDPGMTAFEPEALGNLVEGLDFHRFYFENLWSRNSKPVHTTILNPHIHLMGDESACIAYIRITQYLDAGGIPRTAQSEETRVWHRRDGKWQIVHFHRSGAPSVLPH

T1 sequence (Q9UQM7 whole entry): as the sequence (Q9UQM7 whole entry T286D) above, with D286T counted along it

SMILES	IC50 [1] [µM]	IC50 [2] [µM]	IC50 [3] [µM]	IC50 [4] [µM]	IC50 [5] [µM]	IC50 [6] [µM]	IC50 [7] [µM]	IC50 [8] [µM]	IC50 [9] [µM]	IC50 [10] [µM]	IC50 [11] [µM]
COc1cc(/C=C/c2cc(/C=C/c3ccc(O)c(OC)c3)n(-c3ccccc3)n2)ccc1O	68	103	80	79	54	96	111	37	62	94	
COc1cc(/C=C/c2cc(/C=C/c3ccc(O)c(OC)c3)on2)ccc1O	22.8	22.9	17.1	24.4	0.68	13.7	18	11.4	18.9	28.9	
O=C(/C=C/c1ccc(O)cc1)CC(=O)/C=C/c1ccc(O)cc1 [BISDEMETHOXYCURCUMIN]								37			

Continued, values first:

IC50 [1] [µM]	IC50 [2] [µM]	IC50 [3] [µM]	IC50 [4] [µM]	IC50 [5] [µM]	IC50 [6] [µM]	IC50 [7] [µM]	IC50 [8] [µM]	IC50 [9] [µM]	IC50 [10] [µM]	IC50 [11] [µM]	SMILES
7.58	3.6	16.3	6.3	0.29	0.44	6.5	1.49	0.34	4.4		COc1cc(/C=C/c2cc(/C=C/c3ccc(O)c(OC)c3)[nH]n2)ccc1O [CURCUMIN PYRAZOLE]
69	80	143	45	34	64	33	21	33	112	37	COc1cc(/C=C/C(=O)CC(=O)/C=C/c2ccc(O)c(OC)c2)ccc1O (stereo in doubt) [CURCUMIN]
							13				COc1cc(/C=C/C(=O)CC(=O)/C=C/c2ccc(O)c(OC)c2)ccc1O (stereo in doubt; 1) [CURCUMIN]
							24				COc1cc(/C=C/C(O)=C/C(=O)/C=C/c2ccc(O)cc2)ccc1O [DEMETHOXYCURCUMIN]
